# Measurements taken from patent US20220160804A1, “USE OF LAURUS NOBILIS EXTRACT FRACTIONS TO PROTECT AGAINST AIR POLLUTION RELATED DISEASES” (DSM IP Assets B.V., priority 2019, published 2022).
# Experiments:
# [1] = system: Nrf2; assay: Luciferase reporter assay using H4IIE-ARE8L cells (Nrf2 activation); type: cell-based, rat; conditions: R-sulforaphane Conc. Final 4.55 μg/ml as printed, concentrations of fractions not given, DMSO 0.45 % control 2921
# Procedure: PloS One. 2012; 7 (5): e36774). […] The media was exchanged every two to three-days. The DMEM assay medium used charcoal treated FBS ([…] transactivation assay was performed in 96 well plates. The plates were seeded with approximately 40,000 cells per well in 100 μ[…] and incubated over night at 37° C. Then the test compounds were diluted in […] and given to the cells as described below. The cells were incubated for at least further 16 h at 37° C. and 5% CO2. Cells were equilibrated to room temperature. Lysis of the cells was done by adding 100 μL lysis solution, Steady-Glo® luciferase buffer according to the manufacturer (Promega) containing 0.5 mM DTT per well and incubated for 10 min at room temperature with gentle shaking. The luminescence was measured within 2 hours after incubation on a luminometer (Mithras, Berthold Technologies). […] We used a rat hepatoma cell line that was stably transfected with a construct that contains eight tandem ARE elements in front of a luciferase reporter gene ([…], et al 2012. PloS One. 2012; 7(5):e36774). All extracts, fractions and pure compounds were tested for concentrations that induce toxicity. Non-toxic concentrations were then selected for treating cells as describes in the methods section.
# [2] = system: IL-6; assay: IL-6 secretion of A549 cells treated with Diesel Particulate Matter; type: cell-based, human; conditions: Table 4, LPS 10 μg/mL
# Excerpt: (§1) The human bronchial epithelial cell line BEAS-2B was from ATCC (American Type Culture Collection, Manassas, Va.) and cultured in Bronchial Epithelial cell Growth Medium (BEGM, Lonza, Wakersville, Md.) in CellBIND® surface plastic flasks (Corning Inc., Corning, N.Y.). The adenocarcinomic human alveolar basal epithelial A549 cell line was obtained from ATCC and cultured in Kaighn's Modification of Ham's F-12 Medium (F-12K medium) (Life Technologies, USA), supplemented with 10% FBS (Sigma, Saint-Louis, Mo.). These cells were cultured at 37° C. in a humidified atmosphere containing 5% CO2.
# (§2) BEAS-2B cells were seeded in 12-well CellBIND® surface culture plates (Corning Inc.) at 3 to 4×10^5 cells per well. A549 cells were seeded in 12-well plates at 2×10^5 cells per well. […]
# (§3) After 24 h, cells were treated with the diluted Diesel Particulate Matter at 100 μg/ml and in the presence of different concentrations of Laurus Extracts, other plant extracts, fractions and compounds as indicated. […] The concentrations of IL-6 and IL-8 in the supernatants were determined by Luminex kits (BIO-RAD Laboratories, Hercules, Calif.) and used in the LiquiChip Workstation IS 200 (Qiagen, Hilden, Germany). The data were evaluated with the LiquiChip Analyser software (Qiagen).
# (§4) Mean values, standard deviation and p-values with Student's t-test were calculated with Excel. […]
# [3] = system: IL-6; assay: IL-6 secretion of BEAS-2B cells treated with Diesel Particulate Matter; type: cell-based, human; conditions: for IL-6 % of PM + DMSO: PM + DMSO = 100
# Excerpt: as §1
# BEAS-2B cells were seeded in 12-well CellBIND® surface culture plates (Corning Inc.) at 3 to 4×10^5 cells per well. A549 cells were seeded in 12-well plates at 2×10^5 cells per well.
# Diesel Particulate Matter (Standard Reference Material SRM 1650b, National Institute of Standards & Technology, NIST, Gaithersburg, Md.) at 80 mg/ml DMSO (100%) were sonicated for 5 min and thereafter diluted 400 fold in medium. This dilution was twofold further diluted for the assay.
# After 24 h, cells were treated with the diluted Diesel Particulate Matter at 100 μg/ml and in the presence of different concentrations of Laurus Extracts, other plant extracts, fractions and compounds as indicated. The final DSMO concentrations were 0.175%. Untreated cells or cells treated with 0.175% DMSO were used as controls. After 24 h, cell supernatants were collected. The concentrations of IL-6 and IL-8 in the supernatants were determined by Luminex kits (BIO-RAD Laboratories, Hercules, Calif.) and used in the LiquiChip Workstation IS 200 (Qiagen, Hilden, Germany). The data were evaluated with the LiquiChip Analyser software (Qiagen).
# Mean values, standard deviation and p-values with Student's t-test were calculated with Excel. P-values […] 0.05 were considered as indication for significance.
# [4] = system: IL-8; assay: IL-8 secretion of A549 cells treated with Diesel Particulate Matter; type: cell-based, human; conditions: Table 5, LPS 10 μg/mL
# Excerpt: as §1, §2, §3, §4
Molecule,"Nrf-2 activity, Average [1]",IL-6 ([2]; 24 h) [pg/mL],IL-6 % of PM + DMSO ([2]; PM + DMSO = 100) [%],IL-6 induction relative to PM and DMSO ([3]; LPS 10 μg/mL versus PM + DMSO (Table 2)),"IL-6 ([3]; Table 2, LPS 10 μg/mL, 24 h) [pg/mL]","IL-6 % of PM + DMSO ([3]; Table 2, LPS 10 μg/mL, 24 h) [%]","IL-6 ([3]; Table 3, LPS 10 μg/mL, 24 h) [pg/mL]","IL-6 % of PM + DMSO ([3]; Table 3, LPS 10 μg/mL) [%]",IL-8 ([4]; 24 h) [pg/mL],IL-8 % of PM + DMSO ([4]; PM + DMSO = 100) [%]
"C[S+]([O-])CCCCN=C=S (stereo not shown) [R-Sulforaphane, R-sulforaphane]",13233 relative units of luciferase fluorescence,–,–,–,–,–,–,–,–,–
Lipopolysaccharide [LPS],–,19.6,45,over 40 times,3760,4482,6477,10612,406,140
